Oligonucleotides are written 5' to 3', each unit as a sugar letter and its base; * is a phosphorothioate linkage, no mark a phosphodiester; rarer units and linkages stand in square brackets, end groups in braces. Plain capitals give the bases only. d = 2'-deoxy (DNA); r = 2'-OH (RNA)
Assays:
Type in all cases: cell-based
human PBMC [1] = experiment: Human PBMC TNF-α secretion, ELISA; conditions: for TNF-α response of human PBMC (in words): Example 1, FIG. 2, RNA 50 μg/ml; for TNF-α response of human PBMC (in words) / dose-response of TNF-α secretion: 16 hours; for dose-response of TNF-α secretion: Example 2, 10, 3 or 1 μg RNA with 10 μg DOTAP per 200 μl well; for TNF response of human PBMC: FIG. 15, 30 μM
Method: (§1) Human peripheral blood mononuclear cells (PBMCs) were isolated from healthy donors, plated at 3×10^5 cells/well, stimulated in vitro with various test and control immunostimulatory agents for 16 hours, and then analyzed by enzyme-linked immunosorbent assay (ELISA) using matched antibody pairs from BD-Pharmingen for secreted cytokines IL-12 p40 and TNF-α, performed according to the manufacturer's protocol. Also included were certain negative controls, including medium alone and DOTAP (10 μg/200 μl culture well; “Liposomes”) alone. The control immunostimulatory agents included the imidazoquinolone R-848 (2 μg/ml), lipopolysaccharide (LPS; 1 μg/ml), Pam3Cys (5 μg/ml), poly IC (50 μg/ml), and CpG DNA (50 μg/ml). These are reported ligands for TLR7, TLR4, TLR2, TLR3, and TLR9, respectively. Test immunostimulatory agents included the following RNA molecules, each at 50 μg/ml, with and without DOTAP (10 μg total “with Liposomes” and “without Liposomes”, respectively): GUGUUUAC alone; GUAGGCAC alone; GUGUUUAC in combination with GUAGGCAC; GUAGGA; GAAGGCAC; CUAGGCAC; CUCGGCAC; and CCCCCCCC. These RNA oligonucleotides each contained a phosphorothioate linkage between the penultimate and 3′ terminal nucleoside.
(§2) The experiments described in the preceding example were repeated with varied concentrations of RNA oligonucleotides in order to assess the dose-response behavior of human PBMCs to G,U-containing RNA oligonucleotides of the invention. A total of 10, 3 or 1 μg RNA was added to 10 μg DOTAP and then added to the 200 μl culture wells. After 16 hours IL-12 p40 and TNF-α ELISAs were performed as described in Example 1.
(§3) In order to investigate the possibility of using cholesteryl ester-modified RNA oligomer in place of RNA oligomer plus cationic lipid, RNA oligomer GUGUGUGU was prepared with (R 1058) and without (R 1006) a 3′ cholesteryl ester modification. These two RNA oligomers with and without DOTAP, were added over a range of concentrations to overnight cultures of human PBMC. Culture supernatants were harvested, and human TNF-α, IL-12 p40, and IFN-α were measured by ELISA using matched antibody pairs from BD-Pharmingen according to the manufacturer's protocol.
(§4) RNA oligomers GUGUGUGU, GUGUGUG, GUGUGU, GUGUG, GUGU, GUG, and GU, with and without DOTAP, were added over a range of concentrations to overnight cultures of human PBMC. Culture supernatants were harvested, and human TNF-α, IL-12 p40, and IFN-α were measured by ELISA using matched antibody pairs from BD-Pharmingen according to the manufacturer's protocol.
as §4, with “oligomers,” for “oligomers GUGUGUGU, GUGUGUG, GUGUGU, GUGUG, GUGU, GUG, and GU,”
Human PBMC were cultured overnight in the presence of added DNA:RNA conjugate, with and without DOTAP. Culture supernatants were harvested and human TNF-α, IL-6, IL-12 p40, IP-10, and IFN-α were measured by ELISA using matched antibody pairs from BD-Pharmingen according to the manufacturer's protocol.
Human PBMC were cultured overnight in the presence of various concentrations (1, 3, and 10 μg/ml) of tRNA obtained from wheat germ, bovine, yeast, and E. coli sources, added to the culture medium with and without DOTAP. Culture supernatants were harvested and human TNF-α and IL-12 p40 were measured by ELISA using matched antibody pairs from BD-Pharmingen according to the manufacturer's protocol. […] In addition, E. coli tRNA at 3 and 10 μg/ml induced minor amounts of both cytokines even without DOTAP. […]
FIG. 10 depicts the responsiveness of human PBMC to stringent response factor (SRF). SRF is produced by rapidly growing bacteria (in this case Listeria monocytogenes) in rich media until their late log phase. The bacteria were pelleted and resuspended in an equal volume of PBS for 24 h. The mixture is centrifuged to remove the bacteria. […]

human PBMC [2] = experiment: Human PBMC IL-12 p40 secretion, ELISA; conditions: for IL-12 p40 response of human PBMC (in words): Example 1, FIG. 1, RNA 50 μg/ml with and without DOTAP, R-848 2 μg/ml, LPS 1 μg/ml, Pam3Cys 5 μg/ml, poly IC 50 μg/ml; for IL-12 p40 response of human PBMC (in words) / dose-response of IL-12 p40 secretion: 16 hours; for dose-response of IL-12 p40 secretion: Example 2, FIG. 3, 10, 3 or 1 μg RNA with 10 μg DOTAP per 200 μl well; for EC50 / IL-12 p40 max: Table 2, oligomer length, human PBMC overnight, including DOTAP
Method: as §1
as §2, with “1. […]” for “1.”
as §4, with “protocol. […]” for “protocol.”

human PBMC [3] = experiment: Human PBMC IFN-α secretion, ELISA
Method: as §3, §4
as §4, with “oligomers,” for “oligomers GUGUGUGU, GUGUGUG, GUGUGU, GUGUG, GUGU, GUG, and GU,”
In like manner, an all-phosphodiester 40-mer capable of forming a stem-loop structure and having a base sequence as provided by 5′-[…]-3′ (R 1041; SEQ ID NO:10) was synthesized and tested in overnight culture with human PBMC.

[4] = Table 1, human PBMC overnight culture, with DOTAP
[5] = Table 1, human PBMC overnight culture, with DOTAP, read-out: TNF-α + DOTAP EC50
[6] = Table 1, human PBMC overnight culture, without DOTAP
[7] = Table 1, human PBMC overnight culture, without DOTAP, read-out: TNF-α − DOTAP EC50
[8] = Table 2, oligomer length, human PBMC overnight, including DOTAP
[9] = Table 2, oligomer length, human PBMC overnight, including DOTAP, read-out: TNF-α EC50
[10] = Table 3, internucleoside linkages, human PBMC overnight, including DOTAP
[11] = Table 3, internucleoside linkages, human PBMC overnight, including DOTAP, read-out: TNF-α EC50
[12] = Table 1, human PBMC overnight culture, with DOTAP, read-out: IFN-α + DOTAP EC50
[13] = Table 2, oligomer length, human PBMC overnight, including DOTAP, read-out: IFN-α EC50
[14] = Table 3, internucleoside linkages, human PBMC overnight, including DOTAP, read-out: IFN-α EC50

## GUAGGA
Human PBMC [1]
  TNF-α response of human PBMC (in words): did not secrete significant amounts
Human PBMC [2]
  IL-12 p40 response of human PBMC (in words): little, if any immunostimulatory effect

## GUGUUUAC
Human PBMC [1]
  dose-response of TNF-α secretion: increasing amounts
Human PBMC [2]
  dose-response of IL-12 p40 secretion: increasing amounts

## G*U*G*U*G*U*G*U [R 1006]
Human PBMC [1]; [4]
  TNF-α + DOTAP max: 40000 pg/mL
Human PBMC [1]; [5]
  EC50: 2.8 µM
Human PBMC [1]; [6]
  TNF-α − DOTAP max: 2200 pg/mL
Human PBMC [1]; [7]
  EC50: 7.8 µM
Human PBMC [1]; [8]
  TNF-α max: 40000 pg/mL
Human PBMC [1]; [9]
  EC50: 2.8 µM
Human PBMC [1]; [10]
  TNF-α max: 40000 pg/mL
Human PBMC [1]; [11]
  EC50: 2.8 µM
Human PBMC [2]
  EC50: 1.6 µM
  IL-12 p40 max: 7000 pg/mL
Human PBMC [3]; [4]
  IFN-α + DOTAP max: 5000 pg/mL
Human PBMC [3]; [12]
  EC50: 4.5 µM
Human PBMC [3]; [8]
  IFN-α max: 5000 pg/mL
Human PBMC [3]; [13]
  EC50: 4.5 µM
Human PBMC [3]; [10]
  IFN-α max: 5000 pg/mL
Human PBMC [3]; [14]
  EC50: 4.5 µM

## GUGUGUGU [R 1058]
Human PBMC [1]; [4]
  TNF-α + DOTAP max: 75000 pg/mL
Human PBMC [1]; [5]
  EC50: 0.2 µM
Human PBMC [1]; [6]
  TNF-α − DOTAP max: 3000 pg/mL
Human PBMC [1]; [7]
  EC50: 1 µM
Human PBMC [1]; both with and without DOTAP
  potency compared with R 1006 (cytokine induction in human PBMC): more potent
Human PBMC [3]; [4]
  IFN-α + DOTAP max: 3800 pg/mL
Human PBMC [3]; [12]
  EC50: 0.5 µM
Human PBMC [3]; [6]
  IFN-α − DOTAP max: 1500 pg/mL
Human PBMC [3]; Table 1, human PBMC overnight culture, without DOTAP, read-out: IFN-α − DOTAP EC50
  EC50: 0.5 µM

## G_U_G_U_G_U_G_U [R 1057]
Human PBMC [3]; [10]
  IFN-α max: 6000 pg/mL
Human PBMC [3]; [14]
  EC50: 0.1 µM

## CCCCCCCC
Human PBMC [1]
  TNF-α response of human PBMC (in words): did not secrete significant amounts
  dose-response of TNF-α secretion: did not appear to secrete significant amounts
Human PBMC [2]
  IL-12 p40 response of human PBMC (in words): did not secrete significant amounts
  dose-response of IL-12 p40 secretion: appeared not to secrete

## GUAGGCAC
Human PBMC [1]
  dose-response of TNF-α secretion: increasing amounts
Human PBMC [2]
  dose-response of IL-12 p40 secretion: increasing amounts

## GUGUG [R 1050]
Human PBMC [1]; [8]
  TNF-α max: 40000 pg/mL
Human PBMC [1]; [9]
  EC50: 7.6 µM
Human PBMC [2]
  EC50: 3.9 µM
  IL-12 p40 max: 14000 pg/mL
Human PBMC [3]; [8]
  IFN-α max: 400 pg/mL
Human PBMC [3]; [13]
  EC50: 6.9 µM

## GUGU [R 1051]
Human PBMC [2]
  EC50: > 20 µM
  IL-12 p40 max: 14000 pg/mL

## G*U_G*U*G*U*G*U [R 1054]
Human PBMC [1]; [10]
  TNF-α max: 40000 pg/mL
Human PBMC [1]; [11]
  EC50: 5.6 µM
Human PBMC [3]; [10]
  IFN-α max: 3700 pg/mL
Human PBMC [3]; [14]
  EC50: 6.7 µM

## GUG [R 1052]
Human PBMC [2]
  EC50: > 20 µM
  IL-12 p40 max: 6000 pg/mL
Human PBMC [3]; [8]
  IFN-α max: 800 pg/mL
Human PBMC [3]; [13]
  EC50: 5.5 µM

## GAAGGCAC
Human PBMC [1]
  TNF-α response of human PBMC (in words): did not secrete significant amounts
  dose-response of TNF-α secretion: did not appear to secrete significant amounts
Human PBMC [2]
  IL-12 p40 response of human PBMC (in words): did not secrete significant amounts
  dose-response of IL-12 p40 secretion: appeared not to secrete

## GUGUGUG [R 1048]
Human PBMC [1]; [8]
  TNF-α max: 30000 pg/mL
Human PBMC [1]; [9]
  EC50: 2.2 µM
Human PBMC [2]
  EC50: 2.6 µM
  IL-12 p40 max: 10000 pg/mL
Human PBMC [3]; [8]
  IFN-α max: 2700 pg/mL
Human PBMC [3]; [13]
  EC50: 4.6 µM

## G*U_G*U_G*U*G*U [R 1055]
Human PBMC [1]; [10]
  TNF-α max: 20000 pg/mL
Human PBMC [1]; [11]
  EC50: > 20 µM

## 5′-CACACACUGCUUAAGCGCUUGCCUGCUUAAGUAGUGUGUG-3′ (RNA, phosphodiester; forms stem-loop structure) [R 1041, all-phosphodiester 40-mer capable of forming a stem-loop structure]
Human PBMC [3]; overnight culture with human PBMC
  IFN-α induction maximum: 5000 pg/mL
Human PBMC [3]; overnight culture with human PBMC, read-out: IFN-α induction EC50
  EC50: < 0.1 µM

## CUAGGCAC
Human PBMC [1]
  dose-response of TNF-α secretion: increasing amounts
Human PBMC [2]
  dose-response of IL-12 p40 secretion: increasing amounts

## G*U_G*U_G*U_G*U [R 1056]
Human PBMC [1]; [10]
  TNF-α max: 12000 pg/mL
Human PBMC [1]; [11]
  EC50: > 20 µM

## 5′-GUUGUGGUUGUGGUUGUG-3′ (chemistry not given here) [SEQ ID NO:1, G,U-rich RNA oligonucleotide]
Human PBMC [1]
  TNF response of human PBMC: responsive

## G*U*G*U*G*U*G*U_dG_dG*dG*dG*dG*dG (rG*rU*rG*rU*rG*rU*rG*rUdGdG*dG*dG*dG*dG) [R 1060]
Human PBMC [1]; Table 4, DNA:RNA conjugates, human PBMC overnight, including DOTAP
  TNF-α max: 20000 pg/mL
Human PBMC [1]; Table 4, DNA:RNA conjugates, human PBMC overnight, including DOTAP, read-out: TNF-α EC50
  EC50: 4.9 µM

## CUCGGCAC
Human PBMC [1]
  dose-response of TNF-α secretion: increasing amounts
Human PBMC [2]
  dose-response of IL-12 p40 secretion: increasing amounts

## GUGUGU [R 1049]
Human PBMC [1]; [8]
  TNF-α max: 30000 pg/mL
Human PBMC [1]; [9]
  EC50: 6.7 µM
Human PBMC [2]
  EC50: 2.1 µM
  IL-12 p40 max: 8000 pg/mL
Human PBMC [3]; [8]
  IFN-α max: 3400 pg/mL
Human PBMC [3]; [13]
  EC50: 4.8 µM

## SEQ ID NO:19: G,U-rich DNA oligonucleotide counterpart of SEQ ID NO:1 (GUUGUGGUUGUGGUUGUG; DNA oligonucleotide, linkage chemistry not given here, further chemistry not given here) [reference compound]
Human PBMC [1]
  TNF response of human PBMC: not

— patent publication US9428536B2, “Immunostimulatory G, U-containing oligoribonucleotides” (Zoetis Belgium SA, priority 2002, dated 2016)
